Results as given in ChEMBL document CHEMBL4261654, “Synthesis and in vitro antitumor activity of novel alkenyl derivatives of pyridoxine, bioisosteric analogs of feruloyl methane” (Bioorg Med Chem, 2018).
Active and inactive are the calls of the source. The rule behind the calls is not given here.

Assays:
SNB-19 [1] = assay: Potency index, ratio of compound IC50 to dehydrozingerone IC50 for antiproliferative activity against human SNB19 cells; assay type: functional
PC-3 [2] = assay: Cell cycle arrest in human PC3 cells assessed as accumulation at S phase at 2 uM after 72 hrs by RNase/propidium iodide staining-based flow cytometric analysis (reference value: 17 +/- 1%); assay type: functional
PC-3 [3] = assay: Induction of apoptosis in human PC3 cells assessed as early apoptotic cells at 10 uM after 24 hrs by Annexin V-PE/7-AAD staining-based flow cytometric analysis (reference value: 2%); assay type: functional
M14 [4] = assay: Antiproliferative activity against human M14 cells after 72 hrs by MTT assay; assay type: functional, cell-based; settings: M14, 72 h
OVCAR-4 [5] = assay: Potency index, ratio of compound IC50 to dehydrozingerone IC50 for antiproliferative activity against human OVCAR4 cells; assay type: functional
PC-3 [6] = assay: Cell cycle arrest in human PC3 cells assessed as accumulation at S phase at 10 uM after 72 hrs by RNase/propidium iodide staining-based flow cytometric analysis (reference value: 17 +/- 1%); assay type: functional
PC-3 [7] = assay: Induction of apoptosis in human PC3 cells assessed as viable cells at 30 uM after 24 hrs by Annexin V-PE/7-AAD staining-based flow cytometric analysis (reference value: 70%); assay type: functional; settings: PC-3, 24 h, read-out: Activity
MCF7 [8] = assay: Antiproliferative activity against human MCF7 cells after 72 hrs by MTT assay; assay type: functional, cell-based; settings: MCF7, 72 h
M14 [9] = assay: Potency index, ratio of compound IC50 to dehydrozingerone IC50 for antiproliferative activity against human M14 cells; assay type: functional
PC-3 [10] = assay: Antimigratory activity in human PC3 cells at 10 uM measured during 120 hrs each 15 mins by RTCA DP based cellular impedance analysis; assay type: functional
[11] = Antioxidant activity assessed as ferric ion reducing activity at 20 to 320 umol after 20 mins by FRAP assay; assay type: functional
HCT-15 [12] = assay: Potency index, ratio of compound IC50 to dehydrozingerone IC50 for antiproliferative activity against human HCT15 cells; assay type: functional
PC-3 [13] = assay: Induction of apoptosis in human PC3 cells assessed as intracellular ROS levels by measuring fluoresence intensity at 30 uM after 24 hrs by DCFH-DA staining-based flow cytometric analysis (reference value: 3176 +/- 398); assay type: functional
PC-3 [14] = assay: Induction of apoptosis in human PC3 cells assessed as late apoptotic cells at 10 uM after 24 hrs by Annexin V-PE/7-AAD staining-based flow cytometric analysis (reference value: 8%); assay type: functional
PC-3 [15] = assay: Cell cycle arrest in human PC3 cells assessed as accumulation at G0/G1 phase at 10 uM after 72 hrs by RNase/propidium iodide staining-based flow cytometric analysis (reference value: 61 +/- 3%); assay type: functional
HCT-116 [16] = assay: Antiproliferative activity against human HCT116 cells after 72 hrs by MTT assay; assay type: functional, cell-based; settings: HCT-116, 72 h
PC-3 [17] = assay: Antiproliferative activity in human PC3 cells at 0.2 to 2 uM measured during 120 hrs each 15 mins by RTCA DP based cellular impedance analysis; assay type: functional, cell-based
MDA-MB-231 [18] = assay: Potency index, ratio of compound IC50 to dehydrozingerone IC50 for antiproliferative activity against human MDA-MB-231 cells; assay type: functional
A498 [19] = assay: Potency index, ratio of compound IC50 to dehydrozingerone IC50 for antiproliferative activity against human A498 cells; assay type: functional
PC-3 [20] = assay: Antiproliferative activity in human PC3 cells at 10 uM measured after 120 hrs measured each 15 mins by RTCA DP based cellular impedance analysis; assay type: functional
PC-3 [21] = assay: Induction of mitochondrial membrane potential loss in human PC3 cells assessed as fluorescence intensity at 10 uM after 24 hrs by TMRE dye-based flow cytometric analysis (reference value: 10101 +/- 853); assay type: functional
PC-3 [22] = assay: Potency index, ratio of compound IC50 to dehydrozingerone IC50 for antiproliferative activity against human PC3 cells; assay type: functional
PC-3 [23] = assay: Cell cycle arrest in human PC3 cells assessed as accumulation at G2/M phase at 10 uM after 72 hrs by RNase/propidium iodide staining-based flow cytometric analysis (reference value: 20 +/- 3%); assay type: functional
NCI-H322M [24] = assay: Antiproliferative activity against human NCI-H322M cells after 72 hrs by MTT assay; assay type: functional, cell-based
HCT-15 [25] = assay: Antiproliferative activity against human HCT15 cells after 72 hrs by MTT assay; assay type: functional, cell-based; settings: HCT-15, 72 h
PC-3 [26] = assay: Induction of apoptosis in human PC3 cells assessed as early apoptotic cells at 30 uM after 24 hrs by Annexin V-PE/7-AAD staining-based flow cytometric analysis (reference value: 2%); assay type: functional
PC-3 [27] = assay: Induction of mitochondrial membrane potential loss in human PC3 cells assessed as fluorescence intensity at 20 uM after 24 hrs by TMRE dye-based flow cytometric analysis (reference value: 10101 +/- 853); assay type: functional
PC-3 [28] = assay: Induction of apoptosis in human PC3 cells assessed as necrotic cells at 30 uM after 24 hrs by Annexin V-PE/7-AAD staining-based flow cytometric analysis (reference value: 14%); assay type: functional
PC-3 [29] = assay: Cell cycle arrest in human PC3 cells assessed as accumulation at G2/M phase at 2 uM after 72 hrs by RNase/propidium iodide staining-based flow cytometric analysis (reference value: 20 +/- 3%); assay type: functional
HEK293 = assay: Antiproliferative activity against human HEK293 cells after 72 hrs by MTT assay; assay type: cell-based; settings: HEK293, 72 h
PC-3 [30] = assay: Cell cycle arrest in human PC3 cells assessed as accumulation at G0/G1 phase at 2 uM after 72 hrs by RNase/propidium iodide staining-based flow cytometric analysis (reference value: 61 +/- 3%); assay type: functional
PC-3 [31] = assay: Induction of apoptosis in human PC3 cells assessed as necrotic cells at 10 uM after 24 hrs by Annexin V-PE/7-AAD staining-based flow cytometric analysis (reference value: 14%); assay type: functional
[32] = Antiproliferative activity against HSF cells after 72 hrs by MTT assay; assay type: cell-based; settings: Homo sapiens
A498 [33] = assay: Antiproliferative activity against human A498 cells after 72 hrs by MTT assay; assay type: functional, cell-based; settings: A498, 72 h
NCI-H322M [34] = assay: Potency index, ratio of compound IC50 to dehydrozingerone IC50 for antiproliferative activity against human NCI-H322M cells; assay type: functional
PC-3 [35] = assay: Antimigratory activity in human PC3 cells at 0.2 uM measured during 120 hrs each 15 mins by RTCA DP based cellular impedance analysis; assay type: functional
PC-3 [36] = assay: Induction of mitochondrial membrane potential loss in human PC3 cells assessed as fluorescence intensity at 30 uM after 24 hrs by TMRE dye-based flow cytometric analysis (reference value: 10101 +/- 853); assay type: functional
MCF7 [37] = assay: Potency index, ratio of compound IC50 to dehydrozingerone IC50 for antiproliferative activity against human MCF7 cells; assay type: functional
PC-3 [38] = assay: Induction of apoptosis in human PC3 cells assessed as late apoptotic cells at 30 uM after 24 hrs by Annexin V-PE/7-AAD staining-based flow cytometric analysis (reference value: 8%); assay type: functional
HCT-116 [39] = assay: Potency index, ratio of compound IC50 to dehydrozingerone IC50 for antiproliferative activity against human HCT116 cells; assay type: functional
PC-3 [40] = assay: Antiproliferative activity against human PC3 cells after 72 hrs by MTT assay; assay type: functional, cell-based; settings: PC-3, 72 h
PC-3 [41] = assay: Induction of apoptosis in human PC3 cells assessed as viable cells at 10 uM after 24 hrs by Annexin V-PE/7-AAD staining-based flow cytometric analysis (reference value: 70%); assay type: functional; settings: PC-3, 24 h, read-out: Activity
[42] = Selectivity index, ratio of IC50 for HSF cells to IC50 for human MCF7 cells; assay type: toxicity; settings: HSF cells versus MCF7 cells, read-out: Ratio IC50
MDA-MB-231 [43] = assay: Antiproliferative activity against human MDA-MB-231 cells after 72 hrs by MTT assay; assay type: functional, cell-based; settings: MDA-MB-231, 72 h
PC-3 [44] = assay: Antimigratory activity in human PC3 cells at 2 uM measured during 120 hrs each 15 mins by RTCA DP based cellular impedance analysis; assay type: functional
PC-3 [45] = assay: Induction of apoptosis in human PC3 cells assessed as intracellular ROS levels by measuring fluoresence intensity at 10 uM after 24 hrs by DCFH-DA staining-based flow cytometric analysis (reference value: 3176 +/- 398); assay type: functional
[46] = Ratio of compound IC50 to dehydrozingerone IC50 for antiproliferative activity against HSF cells; assay type: cell-based; settings: human, read-out: Ratio IC50
PC-3 [47] = assay: Induction of apoptosis in human PC3 cells assessed as intracellular ROS levels by measuring fluoresence intensity at 20 uM after 24 hrs by DCFH-DA staining-based flow cytometric analysis (reference value: 3176 +/- 398); assay type: functional
SNB-19 [48] = assay: Antiproliferative activity against human SNB19 cells after 72 hrs by MTT assay; assay type: functional, cell-based; settings: SNB-19, 72 h
OVCAR-4 [49] = assay: Antiproliferative activity against human OVCAR4 cells after 72 hrs by MTT assay; assay type: functional, cell-based; settings: OVCAR-4, 72 h

Structure (SMILES): CC(=O)/C=C/c1cnc(C)c2c1COC1(CCCCC1)O2
- Ratio IC50 (SNB-19 [1]): 7 - 211
- Activity (PC-3 [2]): 18%
- Activity (PC-3 [3]): 3%
- IC50 (M14 [4]): 2.6 µM
- Ratio IC50 (OVCAR-4 [5]): 7 - 211
- Activity (PC-3 [6]): 17%
- viability at 30 µM (PC-3 [7]): 39%
- IC50 (MCF7 [8]): 1.1 µM
- Ratio IC50 (M14 [9]): 7 - 211
- inhibition at 10 µM (PC-3 [10]): 47%
- Activity [11]: inactive
- Ratio IC50 (HCT-15 [12]): 7 - 211
- Flu intensity (PC-3 [13]): 3085
- Activity (PC-3 [14]): 16%
- Activity (PC-3 [15]): 52%
- IC50 (HCT-116 [16]): 2.8 µM
- Activity (PC-3 [17]): inactive
- Ratio IC50 (MDA-MB-231 [18]): 7 - 211
- Ratio IC50 (A498 [19]): 7 - 211
- inhibition at 10 µM (PC-3 [20]): 25%
- Flu intensity (PC-3 [21]): 9999
- Ratio IC50 (PC-3 [22]): 7 - 211
- Activity (PC-3 [23]): 29%
- IC50 (NCI-H322M [24]): 4.6 µM
- IC50 (HCT-15 [25]): 1.5 µM
- Activity (PC-3 [26]): 3%
- Flu intensity (PC-3 [27]): 10524
- Activity (PC-3 [28]): 6%
- Activity (PC-3 [29]): 19%
- IC50 (HEK293): 16 µM
- Activity (PC-3 [30]): 61%
- Activity (PC-3 [31]): 17%
- IC50 [32]: 15.6 µM
- IC50 (A498 [33]): 6.5 µM
- Ratio IC50 (NCI-H322M [34]): 7 - 211
- inhibition at 0.2 µM (PC-3 [35]): 11%
- Flu intensity (PC-3 [36]): 7587
- Ratio IC50 (MCF7 [37]): 7 - 211
- Activity (PC-3 [38]): 52%
- Ratio IC50 (HCT-116 [39]): 7 - 211
- IC50 (PC-3 [40]): 5.5 µM
- viability at 10 µM (PC-3 [41]): 63%
- selectivity ratio [42]: 14.2
- IC50 (MDA-MB-231 [43]): 1.8 µM
- inhibition at 2 µM (PC-3 [44]): 27%
- Flu intensity (PC-3 [45]): 3680
- selectivity ratio [46]: 7 to 211
- Flu intensity (PC-3 [47]): 4486
- IC50 (SNB-19 [48]): 4.7 µM
- IC50 (OVCAR-4 [49]): 19 µM

Structure (SMILES): CCC1OCc2c(/C=C/C(C)=O)cnc(C)c2O1 (stereo not given)
- Ratio IC50 (SNB-19 [1]): 7 - 211
- IC50 (M14 [4]): 9.7 µM
- Ratio IC50 (OVCAR-4 [5]): 7 - 211
- IC50 (MCF7 [8]): 3.9 µM
- Ratio IC50 (M14 [9]): 7 - 211
- Activity [11]: inactive
- Ratio IC50 (HCT-15 [12]): 7 - 211
- IC50 (HCT-116 [16]): 4.1 µM
- Ratio IC50 (MDA-MB-231 [18]): 7 - 211
- Ratio IC50 (A498 [19]): 7 - 211
- Ratio IC50 (PC-3 [22]): 7 - 211
- IC50 (NCI-H322M [24]): 10.6 µM
- IC50 (HCT-15 [25]): 2.1 µM
- IC50 (HEK293): 36 µM
- IC50 [32]: 18.9 µM
- IC50 (A498 [33]): 17 µM
- Ratio IC50 (NCI-H322M [34]): 7 - 211
- Ratio IC50 (MCF7 [37]): 7 - 211
- Ratio IC50 (HCT-116 [39]): 7 - 211
- IC50 (PC-3 [40]): 8.8 µM
- selectivity ratio [42]: 4.8
- IC50 (MDA-MB-231 [43]): 3.1 µM
- selectivity ratio [46]: 7 to 211
- IC50 (SNB-19 [48]): 6.7 µM
- IC50 (OVCAR-4 [49]): 23.6 µM
